In PubChem BioAssay (NCI) one finds TGI data, which are given here for twelve compounds.

SMILES strings stand for the structures.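 1) Cells in 96-well plates. 2) Compound, 48 h, 5 concentrations. 3) Linear interpolation between surrounding doses. 4) Unreached endpoint = highest concentration. TGI is the concentration that stops growth completely.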

Common to all, as to test: NCI anticancer screen, dose series, 48 h
Test [1] concerns SN12C renal.
Test [2] relates to OVCAR-4 ovarian.
Test [3] deals with SK-MEL-28 melanoma.
The subject of test [4] is SK-MEL-5 melanoma.
In test [5] the test system is UACC-257 melanoma.
The subject of test [6] is MOLT-4 leukemia.
In test [7] the test system is HCC-2998 colon.
Test [8] concerns SK-MEL-2 melanoma.
The subject of test [9] is HOP-62 NSCLC.
Test [10] deals with SW-620 colon.
Test [11] concerns NCI-H522 lung.
The test system of test [12] is MALME-3M melanoma.
For test [13], the system named is HCT-15 colon.

For the compound `C/C=C/C#CC#C/C=C/C=C/C(O)CCO` (stereo unspecified), the TGI in test [1], in test [2], in test [3], in test [4], in test [5] and in test [6] was greater than 23.1 µM in each case. For the same compound, the TGI in test [7], in test [8], in [9], in test [10], in test [11] and in test [12] was greater than 23.1 µM in each case. This compound also gave a TGI in test [13] greater than 23.1 µM.
Take `O=C(c1ccccc1)N(C(=O)c1ccccc1)c1nc(SCc2ccccc2)ns1`: the TGI is 64.7 µM in [1]; greater than 100 µM in test [2]; 93.1 µM in test [3]; 30.6 µM in test [4]; 60.5 µM in [5]; 78 µM in [6]. The TGI in test [7] was 49.9 µM; in test [8], 49.5 µM; in test [9], 87.1 µM; in test [10], greater than 100 µM; in [11], 61.5 µM; in [12], 74.8 µM. In [13], the TGI is 65.3 µM.
With `Cc1cc(N(CCC#N)CCC#N)ccc1/C(N=Nc1cccc(Cl)c1)=N/NC(=O)c1cc(Cl)ccc1O`, the TGI in [1] was 61.3 µM; in [2] it was 55.8 µM; in [3] it was 49.9 µM; in test [4], 26.9 µM; in test [5], 31.2 µM; in test [6] it was 34.8 µM. The TGI in test [7] was 26.2 µM; in test [8] it was 36.1 µM; in [9] it was 62 µM; in [10], greater than 100 µM; in test [11] it was 49 µM; in test [12] it was 28.1 µM. Further, the TGI in test [13] was determined as 24.4 µM.
In the case of `O=[N+]([O-])/C(C(Cl)=C(Cl)Cl)=C(/Cl)SCc1ccccc1`, the TGI was found to be 12.9 µM in test [1]; 18.6 µM in test [2]; 20.8 µM in [3]; 20.8 µM in [4]; 7.03 µM in test [5]; 1.25 µM in test [6]. Besides, the TGI in test [7] was determined as 43.5 µM; in [8], 47.4 µM; in test [9], 30 µM; in [10] it was 10.2 µM; in [11], 7.8 µM; in test [12], 6.68 µM. In [13], this compound returned a TGI of 19.2 µM.
Turning to `CC1(c2nc3ccccc3[nH]2)CCC(C(=O)O)C(C)(C)O1` (stereo unspecified), the TGI in [1], in test [2], in test [3], in test [4], in [5] and in test [6] was greater than 100 µM throughout. For the same compound, the TGI in test [7], in [8], in [9], in [10], in test [11] and in test [12] was greater than 100 µM in each case. The compound further had a TGI in test [13] greater than 100 µM.
For the compound `C[C@]12C[C@@H](OC(=O)[C@]1(C)O)[C@@H]([C@]1(O)CC[C@H]3[C@@H]4C[C@H]5O[C@]56C[C@H]5O[C@H]5C(=O)[C@]6(C)[C@H]4CC[C@@]31C)C2`, the TGI in [1], in [2], in test [3], in test [4], in [5] and in test [6] was greater than 50 µM each time. The TGI was greater than 50 µM in test [7]; greater than 50 µM in test [8]; greater than 50 µM in test [9]; greater than 50 µM in [10]; greater than 50 µM in [11]; greater than 5 µM in test [12]. Further, in [13], the TGI is greater than 50 µM.
In the case of `COC(=O)[C@]1(NC(=O)c2ccccc2)C[C@H]1C=O`, the TGI in [1], in test [2], in test [3], in test [4], in test [5] and in [6] was greater than 100 µM in each case. Further, the TGI in [7], in test [8], in test [9], in test [10], in [11] and in [12] was greater than 100 µM throughout. In test [13], this compound showed a TGI greater than 100 µM.
In the case of `CC(=O)OCC(=O)O[C@@H]1[C@H]2[C@@H](OC(=O)c3ccccc3)[C@@H](C)C[C@]2(O)[C@H](OC(C)=O)[C@@]2(C)C(OC(C)=O)[C@]1(OC(C)=O)C[C@H]1C(=O)C(C)(C)C[C@@H]12` (stereo partly specified), the TGI in test [1], in [2], in [3], in [4], in test [5] and in test [6] was greater than 50 µM each time. For the same compound, the TGI in test [7], in test [8], in test [9], in test [10], in test [11] and in [12] was greater than 50 µM each time. The compound also yielded a TGI in [13] greater than 50 µM.
Consider `Nc1ccc2c(c1)nc1n2C(c2c(F)cccc2F)SC1` (stereo unspecified), for which the TGI in test [1], in test [2], in test [3], in test [4], in test [5] and in [6] was greater than 100 µM in each case. Further, the TGI in test [7], in test [8], in test [9], in [10], in test [11] and in [12] was greater than 100 µM each time. This compound gave a TGI in test [13] greater than 100 µM.
In the case of `CCOC(=O)C(=CNc1ccc(NC2=NCC(C)S2)cc1)C(=O)OCC` (stereo unspecified), the TGI in test [1] is greater than 100 µM; in test [2], greater than 51.8 µM; in test [3], greater than 100 µM; in [4], 34.5 µM; in [5], greater than 100 µM; in test [6], 30 µM. In addition, the TGI in [7] was greater than 100 µM; in [8] it was 50.7 µM; in test [9], greater than 100 µM; in [10] it was greater than 100 µM; in [11] it was 36.8 µM; in test [12] it was 96.2 µM. Moreover, in test [13], the TGI was greater than 100 µM.
As to `CC(=O)NC1C(OCc2ccccc2)OC(CO)C(O)C1OC(C)C(=O)NC(C)C(=O)NC(CCC(=O)NCCCCNc1c2ccccc2nc2cccc([N+](=O)[O-])c12)C(N)=O` (stereo unspecified), the TGI was 0.313 µM in test [1]; 0.645 µM in test [2]; 0.409 µM in [3]; 0.119 µM in [4]; 0.509 µM in test [5]; 3.13 µM in [6]. Further, the TGI in test [7] amounted to 0.0588 µM; in test [8] it was 0.393 µM; in test [9], 0.683 µM; in test [10], 0.0785 µM; in test [11], 0.286 µM; in [12], 0.131 µM. In test [13], this compound gave a TGI of 0.0495 µM.
On to `Cc1ccc(-c2nc(N/N=C/C=C/c3ccccc3)c3ccccc3n2)cc1`, for which the TGI in test [1] is 99 µM; in test [2], greater than 100 µM; in [3] it was greater than 100 µM; in [4], greater than 100 µM; in test [5] it was greater than 100 µM; in [6], greater than 100 µM. The TGI was greater than 100 µM in test [7]; 99.2 µM in test [8]; greater than 100 µM in test [9]; greater than 100 µM in test [10]; greater than 100 µM in [11]; greater than 100 µM in [12]. The compound also had a TGI in [13] greater than 100 µM.
